Reference: patent US20220274997A1, “PIM KINASE INHIBITOR COMPOSITIONS AND USES THEREOF” (Snap Bio, Inc., priority 2019, published 2022)

Test system: DU-145
Test: CellTiter-Glo cancer cell growth inhibition, DU-145
Assay type: cell-based
Settings: Homo sapiens, DU-145, 72 h
Description: The CellTiter-Glo® Luminescent Cell Viability Assay is a sensitive homogeneous method to determine the number of viable cells in culture, Detection is based on using the luciferase reaction to measure the amount of ATP from viable cells. The amount of ATP in cells correlates with cell viability. Within minutes after a loss of membrane integrity, cells lose the ability to synthesize ATP, and endogenous ATPases destroy any remaining ATP; thus the levels of ATP fall precipitously. The CellTiter-Glo® Reagent does three things upon addition to cells. It lyses cell membranes to release ATP; it inhibits endogenous ATPases, and it provides luciferin, luciferase and other reagents necessary to measure ATP using a bioluminescent reaction. The unique properties of a proprietary stable luciferase. There is a linear relationship (r2=0.99) between the luminescent signal and the number of cells from 0 to 50.000 cells per well.
All assays were performed by Reaction Biology Corporation (Malvern, Pa.) or ChemDiv, Inc. (San Diego, Calif.). […]
Conditions: 37° C., air 95%; HEPA-filtered carbon dioxide (CO2) 5%, humidified atmosphere. • Cells were grown in 175 cm^2 flasks to 80-90% of confluency. • Culture media was aspirated and cell layer was briefly rinsed with Versen solution to remove all traces of serum. • 2 mL of accutase was added to cells. • Flasks were retuned to incubator for 5 min to allow cell detachment. • Add 6.0 mL of complete growth medium. • Single cell suspension was created by gently pipetting. • Cells were counted using a Hematocytometer and a suspension with the desired cell concentration was prepared. […]
Stock solutions ([…]) were diluted with cell culture media to produce 500× serial dilutions and […] of final compound dilutions were added to cells in assay plates to screen a series of 10 doses starting at 100 mM. […] Luminescence intensity was measured for each well using the Tecan M 1000 microplate reader after 5 min of incubation with CellTiter-Glo Reagent. The number of viable cells in culture was determined based on quantitation of the ATP present in each culture well. […]

With `CN[C@@H]1C[C@H]2O[C@@](C)([C@@H]1OC)n1c3ccccc3c3c4c(c5c6ccccc6n2c5c31)C(=O)NC4` [Staurosporine, reference compound] the EC50 was 4.8 nM.
